Row | SMILES | melting point
1 | [O-][n+]1cc(F)ccc1C(Oc1ccc2c(ccc[n+]2[O-])c1)c1nnco1 (stereo not shown) | 224 to 226 °C
2 | Fc1ccc(C(Oc2ccc3ncc(/C=N/OCC(F)(F)F)cc3c2)c2nnco2)nc1 (stereo not shown) | 118 to 120 °C
3 | Clc1ccc(C(Nc2ccc3ncc(Br)cc3c2)c2nnco2)nc1 (stereo not shown) | 214 to 217 °C
4 | Cc1cc(C(Oc2ccc3ncccc3c2)c2ccccc2)no1 (stereo not shown) | 108 to 110 °C
5 | CSc1cnc2ccc(OC(c3cc(Cl)c(Cl)cn3)c3nnco3)cc2c1 (stereo not shown) | 179 to 181 °C
6 | CC(C)O/N=C/c1cc(OC(c2ccc(F)cn2)c2nnco2)cc2cccnc12 (stereo not shown) | 158 to 159 °C
7 | c1ccc(C(Oc2cnc3ccccc3c2)c2nnco2)cc1 (stereo not shown) | 108 to 110 °C
8 | Cc1cnc2ccc(OC(c3ccc(C#N)cn3)c3ncco3)cc2c1 (stereo not shown) | 168 to 172 °C
9 | c1ccc(C(Oc2ccc3ncccc3c2)c2ccon2)cc1 (stereo not shown) | 126 to 128 °C
10 | Cc1nnc(C(Oc2ccc3ncccc3c2)c2ccccc2)o1 (stereo not shown) | 114 to 116 °C
11 | c1ccc(C(Oc2cc3cccnc3cn2)c2nnco2)cc1 (stereo not shown) | 136 to 139 °C
12 | CO/N=C/c1ccnc(C(Oc2cc(Br)c3ncccc3c2)c2nnco2)c1 (stereo not shown) | 165 to 167 °C
13 | Fc1ccc(C(Oc2cc(Br)c3ncccc3c2)c2nnco2)nc1 (stereo not shown) | 176 to 182 °C
14 | CCO/N=C/c1cnc2ccc(OC(c3ccc(F)cn3)c3nnco3)cc2c1 (stereo not shown) | 130 to 133 °C
15 | CO/N=C/c1ccnc(C(Oc2cc(F)c3ncccc3c2)c2nnco2)c1 (stereo not shown) | 174 to 177 °C
16 | c1ccc(C(Nc2ccc3ncccc3c2)c2nnco2)cc1 (stereo not shown) | 161 to 163 °C
17 | CCO/N=C/c1cc(OC(c2ccc(F)cn2)c2nnco2)cc2cccnc12 (stereo not shown) | 182 to 184 °C
18 | CC(C)(O)c1coc(C(Oc2ccc3ncccc3c2)c2ccccc2)n1 (stereo not shown) | 130 to 134 °C
19 | Fc1ccc(C(Oc2ccc3ncccc3c2)c2ncno2)nc1 (stereo not shown) | 100 to 104 °C
20 | CO/N=C/c1ccnc(C(Oc2cc(Cl)c3ncccc3c2)c2nnco2)c1 (stereo not shown) | 166 to 168 °C
21 | Cc1noc(C(Oc2ccc3ncccc3c2)c2ccc(F)cn2)n1 (stereo not shown) | 79 to 81 °C
22 | c1ccc(C(Oc2ccc3ncccc3c2)c2ccco2)cc1 (stereo not shown) | 215 °C (dec.)
23 | CC(C)O/N=C/c1cnc2ccc(OC(c3ccc(F)cn3)c3nnco3)cc2c1 (stereo not shown) | 112 to 115 °C
24 | c1ccc(C(Oc2ccc3ncccc3c2)c2ncon2)cc1 (stereo not shown) | 138 to 140 °C
25 | c1ccc(C(Oc2ccc3ncccc3c2)c2cnco2)cc1 (stereo not shown) | 110 to 113 °C
26 | Brc1cnc2ccc(OC(c3ccccc3)c3ncco3)cc2c1 (stereo not shown) | 136 to 137 °C

Row | SMILES | melting point
27 | CO/N=C/c1cnc2ccc(OC(c3ccc(F)cn3)c3nnco3)c(Br)c2c1 (stereo not shown) | 172 to 173 °C
28 | FC(F)Oc1ccc(C(Oc2ccc3ncccc3c2)c2nncs2)nc1 (stereo not shown) | 60 to 62 °C
29 | CO/N=C/c1cnc2ccc(OC(c3ccc(F)cn3)c3nnco3)cc2c1 (stereo not shown) | 148 to 152 °C
30 | CCOC(=O)c1coc(C(Oc2ccc3ncccc3c2)c2ccccc2)n1 (stereo not shown) | 103 to 107 °C
31 | C#CCO/N=C/c1ccnc(C(Oc2cc(F)c3ncccc3c2)c2nnco2)c1 (stereo not shown) | 128 to 130 °C
32 | Clc1ccc(C(Nc2ccc3ncccc3c2)c2nnco2)cc1 (stereo not shown) | 151 to 152 °C
33 | c1ccc(C(Oc2ccc3ncccc3c2)c2ncco2)cc1 (stereo not shown) | 122 to 124 °C
34 | c1ccc(C(Oc2ccc3ncccc3c2)c2ccccn2)cc1 (stereo not shown) | 71 to 73 °C
35 | [O-][n+]1cccc2cc(OC(c3ccc(F)cn3)c3nnco3)ccc21 (stereo not shown) | 176 to 177 °C
36 | Fc1ccc(C(Oc2ccc3ncccc3c2)c2ncco2)nc1 (stereo not shown) | 104 to 110 °C
37 | CCO/N=C/c1ccnc(C(Oc2cc(F)c3ncccc3c2)c2nnco2)c1 (stereo not shown) | 168 to 171 °C
38 | Fc1ccc(C(Oc2ccc3ncccc3c2)c2ncon2)nc1 (stereo not shown) | 115 to 119 °C
39 | CC(C)O/N=C/c1ccnc(C(Oc2cc(F)c3ncccc3c2)c2nnco2)c1 (stereo not shown) | 126 to 129 °C
40 | Fc1ccc(C(Oc2cc(/C=C/C(F)(F)F)c3ncccc3c2)c2nnco2)nc1 (stereo not shown) | 147 to 150 °C
41 | Fc1ccc(C(Oc2cccc3ncccc23)c2nnco2)nc1 (stereo not shown) | 198 to 200 °C
42 | Cn1nnnc1C(Oc1ccc2ncccc2c1)c1ccccc1 (stereo not shown) | 111 to 113 °C
43 | c1ccc(C(Oc2ccc3nccnc3c2)c2nnco2)cc1 (stereo not shown) | 155 to 157 °C
44 | Brc1c(OC(c2ccccc2)c2ncon2)ccc2ncccc12 (stereo not shown) | 53 to 55 °C
45 | c1ccc(C(Oc2ccc3ncccc3c2)c2nncs2)cc1 (stereo not shown) | 149 to 151 °C
46 | Cc1cnc2ccc(OC(c3ccc(Br)cn3)c3ncco3)cc2c1 (stereo not shown) | 136 to 139 °C
47 | CO/N=C/c1cnc2ccc(O[C@@H](c3ccc(F)cn3)c3nnco3)cc2c1 | 136 to 137 °C
48 | Fc1ccc(C(Oc2ccc3ncccc3c2)c2nncs2)nc1 (stereo not shown) | 92 to 94 °C
49 | c1ccc(C(Sc2ccc3ncccc3c2)c2nnco2)cc1 (stereo not shown) | 126 to 130 °C
50 | Fc1ccc(C(Oc2cnc3ncccc3c2)c2nnco2)nc1 (stereo not shown) | 154 to 158 °C
51 | CO/N=C/c1cnc2ccc(O[C@H](c3ccc(F)cn3)c3nnco3)cc2c1 | 136 to 138 °C
52 | CO/N=C/c1cc(OC(c2ccc(F)cn2)c2nnco2)cc2cccnc12 (stereo not shown) | 164 to 166 °C
